Read-outs that look alike come from different tables or passages of the source.
Assays:
[1] = system: P. falciparum asexual stages; details: TCAMS data, cited from earlier work
[2] = system: P. falciparum stage V gametocytes; experiment: Gametocytocidal ATP bioluminescence assay (single point 5 μM and 1 μM, dose-response); type: cell-based, Plasmodium falciparum; details: for Ratio IC50 HepG2/IC50 P. falciparum: IC50 HepG2 divided by IC50 P. falciparum gametocytes
Procedure: Purified stage IV-V gametocytes were obtained as previously described [10]. Single point ATP bioluminescence assay and dose–response of positive hits was determined in accordance with the previously published protocol [10].

[3] = system: luciferase reaction (BacTiter-Glo); experiment: Interference assay (inhibition of the BacTiter-Glo luciferase reaction); type: biochemical; parameters: concentration or dose not given beside the values; details: ATP interference assay
Procedure: To discard possible false-positive results, we performed an interference assay in parallel. […] […]. The ATP solution was made by dissolving ATP powder (ATP standard from the ATPlite 1 step assay kit, reference 6016731, Perkin Elmer) in culture medium. The positive control used was the Luciferase Inhibitor I Calbiochem (Merck, 119113) at 100 μM.

[4] = Cytotoxicity in HepG2 cells (intracellular ATP, ATPlite, 48 h); type: cell-based, human; details: human, HepG2 cells
HepG2 cells = experiment: as above; type: cell-based, human; details: IC50 HepG2 divided by IC50 P. falciparum gametocytes
[5] = asexual stages, read-out: IC50 asexual
[6] = Plasmodium falciparum, P. falciparum gametocytes, average, read-out: IC50 Pf Gametocytes average, IC50 (µM) average
[7] = IC50 per ratio column head, unit inferred, read-out: Cytotoxicity in HepG2
[8] = P. falciparum asexual stages, read-out: IC50 (µM) Pf asexual stages
[9] = HepG2, 48 h exposure, intracellular ATP, read-out: IC50 (μM) Cytotoxicity HepG2
[10] = Plasmodium falciparum, sexual stages (gametocytes), dose-response, read-out: IC50 sexual

| SMILES | IC50 [1, 5] | Ratio IC50 HepG2/IC50 P. falciparum [2] | IC50 [2, 6] | IC50 ([2]; sexual stages (gametocytes), dose-response, read-out: IC50 sexual) | % Control luminiscence [3] | IC50 at 48 h [4, 7] | Ratio IC50 HepG2/IC50 P. falciparum (HepG2 cells) | IC50 [1, 8] | IC50 at 48 h [4, 9] | IC50 [2, 10] |
| --- | --- | --- | --- | --- | --- | --- | --- | --- | --- | --- |
| Cc1ccc(-n2c(C)nc3c(Nc4ccc(-c5ccncc5)cc4)ncnc32)c(C)c1 [TCMDC-136289] | 0.101 µM | >47 | 0.53 µM | 0.533 µM | 100% | > 25 µM | >47 | – | – | – |
| c1cc(CNCCN2CCNCC2)cc(-c2cccc(-c3nc4ccccc4[nH]3)c2)c1 [TCMDC-132859] | 0.959 µM | 27 | 0.71 µM | – | 100% | 19.3 µM | 27 | 0.96 µM | 19 µM | – |
| COc1ccc2nc3cc(Cl)ccc3c(NCCCCNc3c4ccc(Cl)cc4nc4ccc(OC)cc34)c2c1 [TCMDC-138218] | 0.16 µM | 72 | 0.2 µM | – | 100% | 14.5 µM | 72 | – | – | – |
| CCn1ncc2c(NC3CCOCC3)c(CNC(=O)c3ccnn3C)c(C)nc21 [TCMDC-136560] | 0.533 µM | >15 | 1.64 µM | – | 100% | > 25 µM | >15 | 0.53 µM | – | 1.64 µM |
| c1ccc2sc(Sc3ncnc4sccc34)nc2c1 [TCMDC-125539] | 0.734 µM | >50 | 0.5 µM | – | 100% | > 25 µM | >50 | 0.73 µM | – | 0.497 µM |
| C/C=C/C=C/C1=NCCc2cc(OCCC)ccc21 [TCMDC-137442] | 0.914 µM | 25 | 0.75 µM | – | 100% | 19 µM | 25 | 0.91 µM | – | 0.747 µM |
| CCCCN1CCN(CCCCNc2c3ccccc3nc3ccccc23)CC1 [TCMDC-137569] | 0.167 µM | 11 | 1.19 µM | – | 100% | 12.7 µM | 11 | 0.17 µM | 13 µM | – |
| COc1cccc(CC(=O)N2CCC(n3c(C)nc4ccc(C)cc43)CC2)c1 [TCMDC-124791] | 0.114 µM | >53 | 0.47 µM | – | 100% | > 25 µM | >53 | 0.11 µM | – | – |
| Cc1n[nH]c2ccc(-c3ccc4nccc(N5CCC(N)CC5)c4c3)cc12 [TCMDC-134315] | 0.591 µM | 30 | 0.38 µM | – | 100% | 11.7 µM | 30 | 0.59 µM | 12 µM | 0.383 µM |
| Cc1cc(Nc2ccncc2)n2nc(C)c(-c3ccccc3Cl)c2n1 [TCMDC-124918] | 0.654 µM | >13 | 1.94 µM | – | 100% | > 25 µM | >13 | 0.65 µM | – | 1.94 µM |
| CCN(CC)C(=NC(=N)Nc1ccc(Cl)cc1)NCCCCCCCCNC(=NC(=N)Nc1ccc(Cl)cc1)N(CC)CC [TCMDC-131812] | 0.403 µM | >24 | 1.03 µM | – | 100% | > 25 µM | >24 | – | – | – |
| Cc1cccc2nc(-c3ccc(-c4cccc(CNCCN5CCNCC5)c4)cc3)[nH]c12 [TCMDC-132867] | 1.23 µM | 16 | 0.84 µM | – | 100% | 13.4 µM | 16 | 1.23 µM | 13 µM | – |
